Toxic doses and inconclusive results are not listed.
System: L1210 leukemia ip in BDF1 mice, survival T/C
Assay: NCI In Vivo Anticancer Drug Screen. Data for tumor model L1210 Leukemia (intraperitoneal) in B6D2F1 (BDF1) mice
Conditions: endpoint: mean survival time, higher = longer survival
Method in brief: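 Value reflects the ratio of survival in compound-treated mice to survival in vehicle-treated controls, with both groups carrying the same transplanted tumor.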

[1] = dose: 100.0 mg/kg/injection, schedule: Q01DX009 (ip), vehicle: saline with Tween-80
[2] = dose: 100.0 mg/kg/injection, schedule: Q04DX002 (ip), vehicle: saline with Tween-80
[3] = dose: 100.0 mg/kg/injection, schedule: Q04DX003 (ip), vehicle: saline with Tween-80
[4] = dose: 200.0 mg/kg/injection, schedule: Q01DX009 (ip), vehicle: saline with Tween-80
[5] = dose: 200.0 mg/kg/injection, schedule: Q04DX003 (ip), vehicle: saline with Tween-80
[6] = dose: 400.0 mg/kg/injection, schedule: Q01DX009 (ip), vehicle: saline with Tween-80
[7] = dose: 400.0 mg/kg/injection, schedule: Q04DX003 (ip), vehicle: saline with Tween-80

For CCC(CN(C)C)C(=O)c1ccccc1 (stereo unspecified), the T/C (dose: 6.0 mg/kg/injection, schedule: Q01DX009 (ip), vehicle: saline) was 93 % of control, the T/C (dose: 12.0 mg/kg/injection, schedule: Q01DX009 (ip), vehicle: saline) was 91 % of control and the T/C (dose: 25.0 mg/kg/injection, schedule: Q01DX009 (ip), vehicle: saline with Tween-80) was 93 % of control. The T/C (dose: 25.0 mg/kg/injection, schedule: Q01DX009 (ip), vehicle: saline) was 88 % of control, the T/C (dose: 25.0 mg/kg/injection, schedule: Q04DX002 (ip), vehicle: saline with Tween-80) was 100 % of control and the T/C (dose: 50.0 mg/kg/injection, schedule: Q01DX009 (ip), vehicle: saline with Tween-80) was 96 % of control. The T/C (dose: 50.0 mg/kg/injection, schedule: Q04DX002 (ip), vehicle: saline with Tween-80) was 96 % of control, the T/C [1] was 93 % of control and the T/C [2] was 104 % of control.

Cc1ccccc1NC(=O)CC#N was tested, and the T/C [2] was 90 % of control, the T/C (dose: 200.0 mg/kg/injection, schedule: Q04DX002 (ip), vehicle: saline with Tween-80) was 101 % of control and the T/C (dose: 400.0 mg/kg/injection, schedule: Q04DX002 (ip), vehicle: saline with Tween-80) was 94 % of control.

In the case of CC(/C=N/N=C(\N)N(C)C)=N\N=C(/N)N(C)C, the T/C (dose: 95.0 mg/kg/injection, schedule: Q01DX Z (oral), vehicle: carboxymethylcellulose (CMC)) is reported as 104 % of control, the T/C (dose: 190.0 mg/kg/injection, schedule: Q01DX Z (oral), vehicle: carboxymethylcellulose (CMC)) is reported as 110 % of control and the T/C (dose: 240.0 mg/kg/injection, schedule: Q01DX Z (ip), vehicle: carboxymethylcellulose (CMC)) is reported as 96 % of control. For the same compound, the T/C (dose: 380.0 mg/kg/injection, schedule: Q01DX Z (oral), vehicle: carboxymethylcellulose (CMC)) was 106 % of control and the T/C (dose: 760.0 mg/kg/injection, schedule: Q01DX Z (oral), vehicle: carboxymethylcellulose (CMC)) was 112 % of control.

For Cc1ccc(C(C)(C)Cl)cc1O, the T/C [1] was 93 % of control, the T/C [3] was 96 % of control and the T/C [4] was 93 % of control. For the same compound, the T/C [5] was 102 % of control, the T/C [6] was 98 % of control and the T/C [7] was 102 % of control.

CC(S)CNCCSC(=O)c1ccccc1 (stereo unspecified) was tested, and the T/C (dose: 100.0 mg/kg/injection, schedule: Q04DX003 (ip), vehicle: acetone) was 91 % of control, the T/C (dose: 200.0 mg/kg/injection, schedule: Q04DX003 (ip), vehicle: acetone) was 102 % of control and the T/C (dose: 400.0 mg/kg/injection, schedule: Q04DX003 (ip), vehicle: acetone) was 97 % of control.

With CCC1(O)CC2CN(CCc3c([nH]c4ccccc34)C(C(=O)OC)(c3cc4c(cc3OC)N(C)C3C(O)(C(=O)NCCO)C(O)C5(CC)C=CCN6CCC43C65)C2)C1 (stereo unspecified) the T/C (dose: 0.16 mg/kg/injection, schedule: Q01DX009 (ip), vehicle: saline) was 123 % of control, the T/C (dose: 0.39 mg/kg/injection, schedule: Q04DX003 (ip), vehicle: saline) was 158 % of control and the T/C (dose: 1.2 mg/kg/injection, schedule: Q01DX009 (ip), vehicle: saline) was 116 % of control. For the same compound, the T/C (dose: 389.0 micrograms/kg/injection, schedule: Q04DX003 (ip), vehicle: saline) was 118 % of control, the T/C (dose: 648.0 micrograms/kg/injection, schedule: Q04DX003 (ip), vehicle: saline) was 106 % of control and the T/C (dose: 1080.0 micrograms/kg/injection, schedule: Q04DX003 (ip), vehicle: saline) was 123 % of control. The T/C (dose: 5000.0 micrograms/kg/injection, schedule: Q04DX003 (ip), vehicle: saline) was 115 % of control.

In the case of CC1(C)SC(C)(C)C1=O, the T/C (dose: 50.0 mg/kg/injection, schedule: Q04DX002 (ip), vehicle: gum acacia) is reported as 100 % of control, the T/C (dose: 100.0 mg/kg/injection, schedule: Q04DX002 (ip), vehicle: gum acacia) is reported as 96 % of control and the T/C (dose: 200.0 mg/kg/injection, schedule: Q04DX002 (ip), vehicle: gum acacia) is reported as 107 % of control.

In the case of C=C1C(=O)O[C@@H]2[C@H]3O[C@]3(C)CCC=C(C)CC[C@@H]12, the T/C (dose: 6.25 mg/kg/injection, schedule: Q01DX009 (ip), vehicle: alcohol) is reported as 97 % of control, the T/C (dose: 12.5 mg/kg/injection, schedule: Q01DX009 (ip), vehicle: alcohol) is reported as 103 % of control and the T/C (dose: 25.0 mg/kg/injection, schedule: Q01DX009 (ip), vehicle: alcohol) is reported as 95 % of control.

In the case of CC(=O)OCC(=O)c1cc(C)n(C)c(=O)c1CN1C(=O)c2ccccc2C1=O, the T/C [1] is reported as 107 % of control, the T/C [3] is reported as 97 % of control and the T/C [4] is reported as 102 % of control. The T/C [5] was 96 % of control, the T/C [6] was 108 % of control and the T/C [7] was 96 % of control.

In the case of Cc1cc(C)c(N(CC(=O)O)S(=O)(=O)c2ccccc2)c(C)c1I, the T/C (dose: 75.0 mg/kg/injection, schedule: Q04DX003 (ip), vehicle: Klucel (hydroxypropylcellulose) (HPC)) is reported as 94 % of control.
